The results in this text go back to PMC11845477, “Exploring the principles behind antibiotics with limited resistance” (Nature Communications, 2025).

SMILES strings stand for the structures. Several values for one entry are separate records, joined by “and”; a condition that tells them apart may be missing. Equal values may be shown once. Where a SMILES comes first, the peptide text is derived from it. Bridges are numbered along the chain shown (N, C = ends). [ ]: non-standard residue; d: D form. The star is where a group is joined. X1 = NC[C@@H](CC(=O)*)c1cccc(Cl)c1; Dab = NCC[C@H](N)C(=O)O; Dap = NC[C@H](N)C(=O)O

One experiment concerns A. baumannii. Description: Bacterial survival at 10xMIC for 4 hours. The class given is cell-based, Acinetobacter baumannii. The following applies: Acinetobacter baumannii; survival at 10xMIC for 4 hours; single replicates, (fig 9a source data); listed as SPR. How it is done: We employed image analysis to quantify bacterial survival under fixed antibiotic concentrations (10xMIC for 4 hours) on E. coli, A. baumannii, K. pneumoniae, and P. aeruginosa. […] Survival rate was quantified by calculating the ratio of the viable cells after antibiotic treatment and the total initial viable cell count.
Fig. 9 Killing kinetics of the studied antibiotics. a Bacterial survival rate in response to toxic antibiotic exposure. […] The bars indicate the survival rate (log10) compared to the untreated initial viable cell count (see “Methods”). Data are presented as mean values of 5 biological replicates ± SEM. The antibiotic group differentiation is denoted by color. […] Survival was estimated by measuring cell viability (colony-forming units/ml) of 2 biologically independent strains following a 4-hour exposure to different concentrations of 16 antibiotics on E. coli ATCC25922 (for further details, see “Methods”). The antibiotic concentration that kills 99.9% of the E. coli population is indicated as a vertical dotted line (see Supplementary Data 5). Error bars represent standard error calculated from the colony counts by Poisson’s model. A Hill function was fitted to the dose-response data from two biological replicates, producing sigmoidal curves (Supplementary Data 5). The Hill coefficient reflects how steeply the survival rate decreases in response to increasing antibiotic concentration ([…]). […] X-axis label colors indicate mode of action groups. For detailed information on antibiotic and bacterial species, see Supplementary Data 1. Source data are provided as a Source Data file.
In this current study, the killing kinetics of each antibiotic was measured according to a previously established experimental protocol[62] with minor modifications. During this assay, the bacterial cultures were exposed to antibiotics in 96-well assay plates and their viability after 4 hours of exposure was quantified by two methods: i) microplating and colony counting or ii) fluorescent staining of cells and counting of the fluorescent units.
Specifically, these experiments were performed in the following steps: (1) Preparation of bacterial stocks. Single colonies from each strain were isolated and grown overnight in MHB medium at 37 °C, 160 rpm. In case of the fluorescently tagged E. coli strains, the medium was supplemented with 10 μg/mL chloramphenicol, to maintain the pZS2R plasmid. Overnight cultures were diluted 1:5000 and grown to an optical density at 600 nm (OD600) of 0.25. These cultures were concentrated by centrifugation and small aliquots of 50 μL containing ~2.2 × 10^9 cells were frozen in glycerol (stored at −80 °C). (2) Preparing assay plates with antibiotics. 96-well plates were filled with 235 μL MHB and supplemented with antibiotics using an automated digital dispenser (D300e, Tecan). In the case of SCH79797, we used minimal media. […] For testing the clearance efficacy of each antibiotic at a single lethal dose, the 10x of the MIC for each antibiotic-strain pair were prepared in at least three replicates. (3) Antibiotic exposure. During the dose response assay, frozen cultures of the E. coli strains expressing YFP and mCherry were thawed and mixed at a 1:1 ratio, diluted 1:1000 in 30 mL MHB and incubated for 45 min at 37 °C and 160 rpm. During the single-dose assay, the frozen cultures of experimental strains (E. coli, K. pneumoniae, A. baumannii) were also thawed and diluted 1:1000 in 30 mL MHB and incubated at 37 °C to reach an OD of 0.25 and 160 rpm. Following this incubation phase, these bacterial cultures were then aliquoted into the 96-well deep-well antibiotic plates (15 μL culture; total volume of 250 μL) at an inoculum density of about 10^7 CFU.

The test system of experiment [1] is polymyxin B-resistant lines of P. aeruginosa (PA-SEN). Description: Cross-resistance of polymyxin B resistant evolved lines, relative MIC. In kind it is cell-based, Pseudomonas aeruginosa. The text has this: (§1) To further investigate potential overlaps in resistance mechanisms, we examined the extent of cross-resistance between polymyxin B and other antibiotics that target the bacterial membrane.
(§2) Fig. 7 Cross-resistance of polymyxin B resistant lines to ST and DT permeabilizer antibiotics. […] 3 independently evolved lines from each investigated species were studied, including E. coli (EC), K. pneumoniae (KP), A. baumannii (AB), and P. aeruginosa (PA). Gray color of the main heatmap indicates combinations not tested due to intrinsic resistance of ancestor strain. The additional heatmap to the right depicts genes mutated in each polymyxin B-adapted line and their involvement in specific cellular processes based on KEGG (Kyoto Encyclopedia of Genes and Genomes) and COG (Clusters of Orthologous Genes) databases. The distances between antibiotics were computed using the Euclidean distance method based on the log-transformed MIC values. The clustering was performed using the complete linkage method. […] For detailed information on antibiotic and bacterial strain abbreviations, see Supplementary Data 1. Source data are provided as a Source Data file.
(§3) A robotic liquid handling system was used to automatically prepare a 11 to 16-step serial dilution in 384-well microtiter plates (Greiner). A final concentration of 5 × 10^5 bacterial cells per mL were inoculated into each well containing 60 µL MHB medium. Bacterial cultures were incubated at 37 °C with continuous shaking (Infors shaker, 900 rpm with 3 mm throw) for 18 hours (2 replicates from each). Cell growth was monitored by measuring the optical density (OD600 values, using Biotek Synergy microplate reader). MIC was defined as the antibiotic concentration of complete growth inhibition (i.e., OD600 < 0.05). Relative MIC was calculated as follows:1 relativeMIC=MICevolved/MICancestor […]
(§4) Supplementary Figure 6. Susceptibility of Polymyxin B resistant lines to other ST and DT […]
(§5) dividing the MIC of the evolved line by that of the corresponding ancestor) of 12 polymyxin B resistant lines to ST and DT permeabilizer antibiotics used in this study. Each data point represents a distinct adaptive laboratory evolved polymyxin B resistant line. Boxplots show the median, first and third quartiles, with whiskers showing the 5th and 95th percentiles. P values were calculated using Dunn's post-hoc test with Benjamini-Hochberg correction (NS indicates p > 0.05, ** / **** indicates p < 0.01 / 0.0001, respectively). The resistance level of polymyxin B resistant lines to polymyxin B (PMB), […]
(§6) For detailed information on antibiotic and bacterial strain abbreviations, see Supplementary Table 1. Source data are provided as a Source […]
(§7) (1 picture or pasted object on this page, not shown here)

Experiment [2] has as its system polymyxin B-resistant lines of A. baumannii (AB-SEN). The experiment is described as above. In kind it is cell-based, Acinetobacter baumannii.
Source text: as §1, §2, §3, §4, §5, §6, §7

`CC(C)C[C@@H]1NC(=O)[C@@H](Cc2ccccc2)NC(=O)[C@H](CCN)NC(=O)[C@@H](NC(=O)[C@H](CN)NC(=O)[C@@H](NC(=O)C[C@H](CN)c2cccc(Cl)c2)[C@@H](C)O)CCNC(=O)[C@H]([C@@H](C)O)NC(=O)[C@H](CCN)NC(=O)[C@H](CCN)NC1=O` [SPR206] (X1-T[Dap][Dab][Dab][dF]L[Dab][Dab]T; lactam 3-C (inferred); N-terminus assumed): in the experiment on A. baumannii, the “Survival rate (log10)” value was -1.951 log10 and -2.839 log10 and -3.084 log10 and -1.511 log10 and -2.915 log10. Besides, the “Relative MIC” value in experiment [1] (PA-SEN, polymyxin B-resistant evolved line 1, MIC evolved/MIC ancestor) is 64; in experiment [1] (PA-SEN, polymyxin B-resistant evolved line 5, MIC evolved/MIC ancestor) it was 64; in experiment [1] (PA-SEN, polymyxin B-resistant evolved line 7, MIC evolved/MIC ancestor), 32; in experiment [1] (polymyxin B-resistant evolved line 1 of PA-SEN, MIC relative to ancestor), 64; in experiment [1] (polymyxin B-resistant evolved line 5 of PA-SEN, MIC relative to ancestor), 64; in experiment [1] (polymyxin B-resistant evolved line 7 of PA-SEN, MIC relative to ancestor), 32. For the same compound, the “Relative MIC” value is given as 128 in experiment [2] (AB-SEN, polymyxin B-resistant evolved line 2, MIC evolved/MIC ancestor); 2048 in experiment [2] (AB-SEN, polymyxin B-resistant evolved line 6, MIC evolved/MIC ancestor); 128 in experiment [2] (AB-SEN, polymyxin B-resistant evolved line 9, MIC evolved/MIC ancestor); 128 in experiment [2] (polymyxin B-resistant evolved line 2 of AB-SEN, MIC relative to ancestor); 2048 in experiment [2] (polymyxin B-resistant evolved line 6 of AB-SEN, MIC relative to ancestor); 128 in experiment [2] (polymyxin B-resistant evolved line 9 of AB-SEN, MIC relative to ancestor).
